Laboratory results as given in US7388111B2, “Non-nucleoside reverse transcriptase inhibitors” (Roche Palo Alto LLC, priority 2005, dated 2008).

Biological target: HIV-1 RT (Human immunodeficiency virus type 1 group M subtype B, UniProt P03366)
Experiment: HIV Reverse Transcriptase Assay: Inhibitor IC50 Determination
Assay type: biochemical
Settings: purified recombinant enzyme, poly(rA)/oligo(dT)16 template-primer, 37° C. 30 min
Experimental: HIV Reverse Transcriptase Assay: Inhibitor IC50 Determination
HIV-1 RT assay was carried out in 96-well Millipore MultiScreen MADVNOB50 plates using purified recombinant enzyme and a poly(rA)/oligo(dT)16 template-primer in a total volume of 50 μL. The assay constituents were 50 mM Tris/HCl, 50 mM NaCl, 1 mM EDTA, 6 mM MgCl2, 5 μM dTTP, 0.15 μCi [^3H] dTTP, 5 μg/ml poly (rA) pre annealed to 2.5 μg/ml oligo (dT)16 and a range of inhibitor concentrations in a final concentration of 10% DMSO. Reactions were initiated by adding 4 nM HIV-1 RT and after incubation at 37° C. for 30 min, they were stopped by the addition of 50 μl ice cold 20% TCA and allowed to precipitate at 4° C. for 30 min. The precipitates were collected by applying vacuum to the plate and sequentially washing with 3×200 μl of 10% TCA and 2×200 μl 70% ethanol. Finally, the plates were dried and radioactivity counted in a Packard TopCounter after the addition of 25 μl scintillation fluid per well. IC50's were calculated by plotting % inhibition versus log10 inhibitor concentrations.

Going from `N#Cc1cc(Cl)cc(Oc2ccc(CC(=O)Nc3ccc(S(N)(=O)=O)cc3Cl)cc2Cl)c1` [Compound I-39, 2-[3-Chloro-4-(3-chloro-5-cyano-phenoxy)-phenyl]-N-(2-chloro-4-sulfamoyl-phenyl)-acetamide] to `Cc1cc(S(N)(=O)=O)ccc1NC(=O)Cc1ccc(Oc2cc(Cl)cc(C#N)c2)c(Cl)c1` [Compound I-38, 2-[3-Chloro-4-(3-chloro-5-cyano-phenoxy)-phenyl]-N-(2-methyl-4-sulfamoyl-phenyl)-acetamide], the IC50 rises from 92.6 nM to 806 nM (8.7-fold). The first is the more potent here.

`Cc1cc(S(N)(=O)=O)ccc1NC(=O)Cc1ccc(Oc2cc(Cl)cc(C#N)c2)c(C)c1C` [Compound I-66, 2-[4-(3-Chloro-5-cyano-phenoxy)-2,3-dimethyl-phenyl]-N-(2-methyl-4-sulfamoyl-phenyl)-acetamide] and `Cc1c(CC(=O)Nc2ccc(S(N)(=O)=O)cc2Cl)ccc(Oc2cc(Cl)cc(C#N)c2)c1C` [Compound I-18, 2-[4-(3-Chloro-5-cyano-phenoxy)-2,3-dimethyl-phenyl]-N-(2-chloro-4-sulfamoyl-phenyl)-acetamide] are within 1.5-fold of each other in IC50: 81.7 nM for the first, 111 nM for the second.

First: Cc1cc(OCCCS(N)(=O)=O)ccc1NC(=O)Cc1ccc(Oc2cc(Cl)ccc2Br)c(Cl)c1 [Compound I-5, 2-[4-(2-Bromo-5-chloro-phenoxy)-3-chloro-phenyl]-N-[2-methyl-4-(3-sulfamoyl-propoxy)-phenyl]-acetamide]
Second: Cc1ccccc1NC(=O)Cc1ccc(Oc2cc(Cl)ccc2Br)c(Cl)c1 [Compound I-7, 2-[4-(2-Bromo-5-chloro-phenoxy)-3-chloro-phenyl]-N-o-tolyl-acetamide]
The IC50 of the first is 5.6-fold lower: 148 nM for the first, 832 nM for the second.

Going from `N#Cc1cc(Cl)cc(Oc2ccc(CC(=O)Nc3ccc(S(N)(=O)=O)cc3)cc2Br)c1` [Compound I-46, 2-[3-Bromo-4-(3-chloro-5-cyano-phenoxy)-phenyl]-N-(4-sulfamoyl-phenyl)-acetamide] to `N#Cc1cc(Cl)cc(Oc2ccc(CC(=O)Nc3ccc(CS(N)(=O)=O)cc3)cc2Br)c1` [Compound I-49, 2-[3-Bromo-4-(3-chloro-5-cyano-phenoxy)-phenyl]-N-(4-sulfamoylmethyl-phenyl)-acetamide], the IC50 falls from 6000 nM to 2350 nM (2.6-fold). The second is the more potent here.

Compared with `COc1cc(CC(=O)Nc2ccc(S(N)(=O)=O)cc2Br)ccc1Oc1ccc(C#N)cc1C` [Compound I-56, N-(2-Bromo-4-sulfamoyl-phenyl)-2-[4-(4-cyano-2-methyl-phenoxy)-3-methoxy-phenyl]-acetamide], `COc1cc(CC(=O)Nc2ccc(S(N)(=O)=O)cc2C)ccc1Oc1ccc(C#N)cc1C` [Compound I-54, 2-[4-(4-Cyano-2-methyl-phenoxy)-3-methoxy-phenyl]-N-(2-methyl-4-sulfamoyl-phenyl)-acetamide] is 8.7-fold higher in IC50: 282 nM for the first, 2440 nM for the second.

Compared with `NS(=O)(=O)c1ccc(NC(=O)Cc2ccc(Oc3c(Cl)cccc3Cl)c(Cl)c2)c(Cl)c1` [Compound I-45, 2-[3-Chloro-4-(2,6-dichloro-phenoxy)-phenyl]-N-(2-chloro-4-sulfamoyl-phenyl)-acetamide], `Cc1cc(S(N)(=O)=O)ccc1NC(=O)Cc1ccc(Oc2c(Cl)cccc2Cl)c(Cl)c1` [Compound I-41, 2-[3-Chloro-4-(2,6-dichloro-phenoxy)-phenyl]-N-(2-methyl-4-sulfamoyl-phenyl)-acetamide] is 2.6-fold higher in IC50: 63.4 nM for the first, 162 nM for the second. The first is the more potent here.

First: Cc1cc(S(N)(=O)=O)ccc1NC(=O)Cc1ccc(Oc2cc(C#N)ccc2Cl)c(Cl)c1 [Compound I-35, 2-[3-Chloro-4-(2-chloro-5-cyano-phenoxy)-phenyl]-N-(2-methyl-4-sulfamoyl-phenyl)-acetamide]
Second: N#Cc1ccc(Cl)c(Oc2ccc(CC(=O)Nc3ccc(S(N)(=O)=O)cc3Cl)cc2Cl)c1 [Compound I-36, 2-[3-Chloro-4-(2-chloro-5-cyano-phenoxy)-phenyl]-N-(2-chloro-4-sulfamoyl-phenyl)-acetamide]
The IC50 of the first is 3.8-fold higher: 395 nM for the first, 104 nM for the second. The second is the more potent here.

First: COc1cc(CC(=O)Nc2ccc(S(N)(=O)=O)cc2Cl)ccc1Oc1cc(Cl)cc(C#N)c1 [Compound I-52, 2-[4-(3-Chloro-5-cyano-phenoxy)-3-methoxy-phenyl]-N-(2-chloro-4-sulfamoyl-phenyl)-acetamide]
Second: COc1cc(CC(=O)Nc2ccc(S(N)(=O)=O)cc2C)ccc1Oc1cc(Cl)cc(C#N)c1 [Compound I-51, 2-[4-(3-Chloro-5-cyano-phenoxy)-3-methoxy-phenyl]-N-(2-methyl-4-sulfamoyl-phenyl)-acetamide]
The IC50 of the first is 3.5-fold lower: 518 nM for the first, 1800 nM for the second.

First: COc1cc(CC(=O)Nc2ccc(S(N)(=O)=O)cc2Cl)ccc1Oc1ccc(C#N)cc1C [Compound I-55, N-(2-Chloro-4-sulfamoyl-phenyl)-2-[4-(4-cyano-2-methyl-phenoxy)-3-methoxy-phenyl]-acetamide]
Second: Cc1cc(C#N)ccc1Oc1ccc(CC(=O)Nc2ccc(S(N)(=O)=O)cc2Cl)cc1Cl [Compound I-44, 2-[3-Chloro-4-(4-cyano-2-methyl-phenoxy)-phenyl]-N-(2-chloro-4-sulfamoyl-phenyl)-acetamide]
The IC50 of the first is 5.9-fold higher: 419 nM for the first, 71.5 nM for the second.

Going from `COc1cc(CC(=O)Nc2ccc(S(N)(=O)=O)cc2Br)ccc1Oc1cc(Cl)cc(C#N)c1` [Compound I-53, N-(2-Bromo-4-sulfamoyl-phenyl)-2-[4-(3-chloro-5-cyano-phenoxy)-3-methoxy-phenyl]-acetamide] to `N#Cc1cc(Cl)cc(Oc2ccc(CC(=O)Nc3ccc(S(N)(=O)=O)cc3Br)cc2Br)c1` [Compound I-50, 2-[3-Bromo-4-(3-chloro-5-cyano-phenoxy)-phenyl]-N-(2-bromo-4-sulfamoyl-phenyl)-acetamide], the IC50 falls from 394 nM to 13.5 nM (29-fold).

First: Cc1c(CC(=O)Nc2ccc(S(N)(=O)=O)cc2)ccc(Oc2cc(Cl)cc(C#N)c2)c1C [Compound I-65, 2-[4-(3-Chloro-5-cyano-phenoxy)-2,3-dimethyl-phenyl]-N-(4-sulfamoyl-phenyl)-acetamide]
Second: Cc1c(CC(=O)Nc2ccc(S(N)(=O)=O)cc2Br)ccc(Oc2cc(Cl)cc(C#N)c2)c1C [Compound I-33, N-(2-Bromo-4-sulfamoyl-phenyl)-2-[4-(3-chloro-5-cyano-phenoxy)-2,3-dimethyl-phenyl]-acetamide]
The IC50 of the first is 37-fold higher: 3120 nM for the first, 84.3 nM for the second. The second is the more potent here.

Going from `O=C(Cc1ccc(Oc2cc(Cl)ccc2Br)c(Cl)c1)Nc1ccccc1F` [Compound I-8, 2-[4-(2-Bromo-5-chloro-phenoxy)-3-chloro-phenyl]-N-(2-fluoro-phenyl)-acetamide] to `O=C(Cc1ccc(Oc2cc(Cl)ccc2Br)c(Cl)c1)Nc1ccccc1Cl` [Compound I-6, 2-[4-(2-Bromo-5-chloro-phenoxy)-3-chloro-phenyl]-N-(2-chloro-phenyl)-acetamide], the IC50 falls from 5810 nM to 170 nM (34-fold). The second is the more potent here.

`N#Cc1cc(Oc2ccc(CC(=O)Nc3ccc(S(N)(=O)=O)cc3Br)cc2Br)cc(C(F)F)c1` [Compound I-64, 2-[3-Bromo-4-(3-cyano-5-difluoromethyl-phenoxy)-phenyl]-N-(2-bromo-4-sulfamoyl-phenyl)-acetamide] and `N#Cc1cc(Oc2ccc(CC(=O)Nc3ccc(S(N)(=O)=O)cc3Cl)cc2Br)cc(C(F)F)c1` [Compound I-63, 2-[3-Bromo-4-(3-cyano-5-difluoromethyl-phenoxy)-phenyl]-N-(2-chloro-4-sulfamoyl-phenyl)-acetamide] are within 1.5-fold of each other in IC50: 61.2 nM for the first, 53.1 nM for the second.

Going from `Cc1cc(S(N)(=O)=O)ccc1NC(=O)Cc1ccc(Oc2ccc(C#N)cc2C)c(Cl)c1` [Compound I-43, 2-[3-Chloro-4-(4-cyano-2-methyl-phenoxy)-phenyl]-N-(2-methyl-4-sulfamoyl-phenyl)-acetamide] to `Cc1cc(C#N)ccc1Oc1ccc(CC(=O)Nc2ccc(S(N)(=O)=O)cc2Cl)c(C)c1C` [Compound I-25, N-(2-Chloro-4-sulfamoyl-phenyl)-2-[4-(4-cyano-2-methyl-phenoxy)-2,3-dimethyl-phenyl]-acetamide], the IC50 falls from 695 nM to 157 nM (4.4-fold).

First: N#Cc1cc(Cl)cc(Oc2ccc(CC(=O)Nc3ccc(S(N)(=O)=O)cc3Cl)cc2Br)c1 [Compound I-48, 2-[3-Bromo-4-(3-chloro-5-cyano-phenoxy)-phenyl]-N-(2-chloro-4-sulfamoyl-phenyl)-acetamide]
Second: Cc1cc(S(N)(=O)=O)ccc1NC(=O)Cc1ccc(Oc2cc(Cl)cc(C#N)c2)c(Br)c1 [Compound I-47, 2-[3-Bromo-4-(3-chloro-5-cyano-phenoxy)-phenyl]-N-(2-methyl-4-sulfamoyl-phenyl)-acetamide]
The IC50 of the first is 18-fold lower: 19.1 nM for the first, 339 nM for the second. The first is the more potent here.

Going from `Cc1cc(S(N)(=O)=O)ccc1NC(=O)Cc1ccc(Oc2ccc(C#N)cc2C)c(C)c1C` [Compound I-23, 2-[4-(4-Cyano-2-methyl-phenoxy)-2,3-dimethyl-phenyl]-N-(2-methyl-4-sulfamoyl-phenyl)-acetamide] to `Cc1cc(S(N)(=O)=O)ccc1NC(=O)Cc1ccc(Oc2cc(C#N)cc(C(F)F)c2)c(Br)c1` [Compound I-62, 2-[3-Bromo-4-(3-cyano-5-difluoromethyl-phenoxy)-phenyl]-N-(2-methyl-4-sulfamoyl-phenyl)-acetamide], the IC50 falls from 252 nM to 116 nM (2.2-fold).

Compared with `N#Cc1cc(C#N)cc(Oc2ccc(CC(=O)Nc3ccc(S(N)(=O)=O)cc3Br)cc2Cl)c1` [Compound I-21, N-(2-Bromo-4-sulfamoyl-phenyl)-2-[3-chloro-4-(3,5-dicyano-phenoxy)-phenyl]-acetamide], `N#Cc1cc(C#N)cc(Oc2ccc(CC(=O)Nc3ccccc3Br)cc2Cl)c1` [Compound I-20, N-(2-Bromo-phenyl)-2-[3-chloro-4-(3,5-dicyano-phenoxy)-phenyl]-acetamide] is 15-fold higher in IC50: 159 nM for the first, 2380 nM for the second.

System: not given
Experiment: not given
Settings: not given

First: N#Cc1cc(Cl)cc(Oc2ccc(CC(=O)Nc3ccc(S(N)(=O)=O)cc3Cl)cc2Br)c1 [Compound I-48, 2-[3-Bromo-4-(3-chloro-5-cyano-phenoxy)-phenyl]-N-(2-chloro-4-sulfamoyl-phenyl)-acetamide]
Second: Cc1cc(S(N)(=O)=O)ccc1NC(=O)Cc1ccc(Oc2cc(Cl)cc(C#N)c2)c(Br)c1 [Compound I-47, 2-[3-Bromo-4-(3-chloro-5-cyano-phenoxy)-phenyl]-N-(2-methyl-4-sulfamoyl-phenyl)-acetamide]
The melting point of the first is lower: 205 to 207.3 °C for the first, 214.6 to 215.9 °C for the second.

Compared with `N#Cc1cc(Cl)cc(Oc2ccc(CC(=O)Nc3ccc(S(N)(=O)=O)cc3Br)cc2Br)c1` [Compound I-50, 2-[3-Bromo-4-(3-chloro-5-cyano-phenoxy)-phenyl]-N-(2-bromo-4-sulfamoyl-phenyl)-acetamide], `N#Cc1cc(Cl)cc(Oc2ccc(CC(=O)Nc3ccc(CS(N)(=O)=O)cc3)cc2Br)c1` [Compound I-49, 2-[3-Bromo-4-(3-chloro-5-cyano-phenoxy)-phenyl]-N-(4-sulfamoylmethyl-phenyl)-acetamide] is lower in melting point: 168.1 to 170.4 °C for the first, 133.4 to 135.3 °C for the second.
